Experimental data published in US11129819B2, “Fumarate analogs and uses thereof” (Rigel Pharmaceuticals, Inc., priority 2014, dated 2021).
pEC50: −log10 of the molar value. Counter-ions that a name gives are not always drawn. Like-named read-outs stand apart in the source and are kept apart here.

Assays:
[1] = system: NrF2 (Nuclear factor (erythroid-derived 2)-like 2); assay: NrF2 activation in a whole cell nuclear translocation assay; format: cell-based
Method: NrF2 Activation in a Whole Cell Nuclear Translocation Assay Compounds were tested in a NrF2 (Nuclear factor (erythroid-derived 2)-like 2) translocation assay by adapting the methods set forth in U.S. Pat. No. 8,101,373, the disclosure of which is incorporated herein by reference.

[2] = system: experimental autoimmune encephalomyelitis (EAE); assay: Autoimmune encephalitis (EAE) in vivo assay in mice; parameters: species or system C57BL/6 mice; details: dosed at 60 mg/kg beginning on the day of immunization
[3] = read-out: NrF2 translocation assay EC50
[4] = reference fumarates, read-out: NrF2 activation EC50

SMILES	pEC50 [1, 3]	other results
COC(=O)/C=C/n1nnn(C2CCOCC2)c1=O [Compound 12, methyl (E)-3-(5-oxo-4-(tetrahydro-2H-pyran-4-yl)-4,5-dihydro-1H-tetrazol-1-yl)acrylate]	4.98	–
COC(=O)/C=C/n1nn[nH]c1=O [Compound 1, methyl (E)-3-(5-oxo-4,5-dihydro-1H-tetrazol-1-yl)acrylate]	4.21	onset of disease paralysis ([2]; 60 mg/kg): significantly prevented the onset of disease paralysis; onset of disease paralysis ([2]; listed as compound 1, 60 mg/kg): significantly prevents the onset of disease paralysis
COC(=O)/C=C/n1nnn(C2CC2)c1=O [Compound 21, methyl (E)-3-(4-cyclopropyl-5-oxo-4,5-dihydro-1H-tetrazol-1-yl)acrylate]	5.14	–
COC(=O)/C=C/n1nnn(-c2ccccc2)c1=O [Compound 16, methyl (E)-3-(5-oxo-4-phenyl-4,5-dihydro-1H-tetrazol-1-yl)acrylate]	6.00	–
COC(=O)/C=C/n1nnn(C2CCCC2)c1=O [Compound 11, methyl (E)-3-(4-cyclopentyl-5-oxo-4,5-dihydro-1H-tetrazol-1-yl)acrylate]	5.27	–
COC(=O)/C=C/n1nnn(/C=C/C(=O)OC)c1=O [Compound 20, dimethyl 3,3′-(5-oxo-1H-tetrazole-1,4(5H)-diyl)(2E,2′E)-diacrylate]	6.15	–
COC(=O)/C=C/C(=O)O [Monomethyl fumarate, monomethyl fumarate, reference compound]	–	pEC50 [1, 4]: ~3.90
COC(=O)/C=C/n1nnn(C(C)C)c1=O [Compound 6, methyl (E)-3-(4-isopropyl-5-oxo-4,5-dihydro-1H-tetrazol-1-yl)acrylate]	5.11	–
COC(=O)/C=C/n1nnn(C(=O)N(C)C)c1=O [Compound 10, Methyl (E)-3-(4-(dimethylcarbamoyl)-5-oxo-4,5-dihydro-1H-tetrazol-1-yl)acrylate]	5.21	–
COC(=O)/C=C/n1nnn(CC(=O)OC)c1=O [Compound 14, methyl (E)-3-(4-(2-methoxy-2-oxoethyl)-5-oxo-4,5-dihydro-1H-tetrazol-1-yl)acrylate]	5.17	–
COC(=O)/C=C/C(=O)OC [dimethyl fumarate, reference compound]	–	pEC50 [1, 4]: ~5.10
